Assay results reported in PubChem BioAssay AID328 (DTP/NCI, 2004).
Where “and” joins values, the source holds several entries; their conditions need not be identical. Identical values can stand only once. Toxic doses and inconclusive results are not listed.

Test system: BDF1 mice, P388 leukemia ip, median survival T/C
Assay: NCI In Vivo Anticancer Drug Screen. Data for tumor model P388 Leukemia (intraperitoneal) in B6D2F1 (BDF1) mice
Conditions: endpoint: median survival time, higher = longer survival
Summary of the method: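 Transplantable tumour in mice; compound vs vehicle dosing; survival scored; ratio of treated to control reported.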

[1] = dose: 12.5 mg/kg/injection, schedule: Q01DX009 (ip), vehicle: saline
[2] = dose: 25.0 mg/kg/injection, schedule: Q01DX009 (ip), vehicle: saline
[3] = dose: 50.0 mg/kg/injection, schedule: Q01DX009 (ip), vehicle: saline
[4] = dose: 100.0 mg/kg/injection, schedule: Q01DX009 (ip), vehicle: saline
[5] = dose: 100.0 mg/kg/injection, schedule: Q04DX003 (ip), vehicle: Klucel (hydroxypropylcellulose) (HPC)
[6] = dose: 12.5 mg/kg/injection, schedule: Q01DX009 (ip), vehicle: saline with Tween-80
[7] = dose: 25.0 mg/kg/injection, schedule: Q01DX009 (ip), vehicle: saline with Tween-80
[8] = dose: 50.0 mg/kg/injection, schedule: Q01DX009 (ip), vehicle: saline with Tween-80
[9] = dose: 100.0 mg/kg/injection, schedule: Q01DX009 (ip), vehicle: saline with Tween-80

With CC(CN1CC(=O)NC(=O)C1)N1CC(=O)NC(=O)C1.[Cl-].[Pt+4] (centres undefined) the T/C [1] was 100 % of control, the T/C [2] was 95 % of control and 118 % of control and the T/C [3] was 97 % of control. The T/C [4] was 91 % of control and the T/C (dose: 200.0 mg/kg/injection, schedule: Q01DX009 (ip), vehicle: saline) was 105 % of control.

For O=[n+]1ccn2ccccc2c1, the T/C [2] was 95 % of control, the T/C [3] was 114 % of control and the T/C (dose: 65.0 mg/kg/injection, schedule: Q01DX009 (ip), vehicle: saline) was 95 % of control. For the same molecule, the T/C (dose: 75.0 mg/kg/injection, schedule: Q04DX003 (ip), vehicle: saline) was 100 % of control, the T/C [4] was 108 % of control and the T/C (dose: 150.0 mg/kg/injection, schedule: Q04DX003 (ip), vehicle: saline) was 90 % of control.

For CC1=CC23C(=O)[C@@H](C=C(COC(=O)c4ccccc4)[C@@H](O)[C@]2(O)[C@H]1OC(=O)c1ccccc1)[C@H]1[C@@H](C[C@H]3C)C1(C)C, the T/C (dose: 7.0 micrograms/kg/injection, schedule: Q01DX009 (ip), vehicle: saline with Tween-80) was 197 % of control, the T/C (dose: 8.0 micrograms/kg/injection, schedule: Q01DX009 (ip), vehicle: saline + alcohol) was 110 % of control and the T/C (dose: 11.0 micrograms/kg/injection, schedule: Q01DX009 (ip), vehicle: saline with Tween-80) was 107 % of control. For the same molecule, the T/C (dose: 13.0 micrograms/kg/injection, schedule: Q01DX009 (ip), vehicle: saline + alcohol) was 108 % of control, the T/C (dose: 19.0 micrograms/kg/injection, schedule: Q01DX009 (ip), vehicle: saline with Tween-80) was 113 % of control and the T/C (dose: 21.0 micrograms/kg/injection, schedule: Q01DX009 (ip), vehicle: saline + alcohol) was 110 % of control. The T/C (dose: 31.0 micrograms/kg/injection, schedule: Q01DX009 (ip), vehicle: saline with Tween-80) was 113 % of control, the T/C (dose: 35.0 micrograms/kg/injection, schedule: Q01DX009 (ip), vehicle: saline + alcohol) was 110 % of control and the T/C (dose: 52.0 micrograms/kg/injection, schedule: Q01DX009 (ip), vehicle: saline with Tween-80) was 124 % of control. For the same molecule, the T/C (dose: 59.0 micrograms/kg/injection, schedule: Q01DX009 (ip), vehicle: saline + alcohol) was 107 % of control, the T/C (dose: 86.0 micrograms/kg/injection, schedule: Q01DX009 (ip), vehicle: saline with Tween-80) was 109 % of control and the T/C (dose: 98.0 micrograms/kg/injection, schedule: Q01DX009 (ip), vehicle: saline + alcohol) was 100 % of control. For the same molecule, the T/C (dose: 144.0 micrograms/kg/injection, schedule: Q01DX009 (ip), vehicle: saline with Tween-80) was 113 % of control and the T/C (dose: 240.0 micrograms/kg/injection, schedule: Q01DX009 (ip), vehicle: saline with Tween-80) was 157 % of control.

With Cc1sc([N+](=O)[O-])cc1[N+](=O)[O-] the T/C (dose: 25.0 mg/kg/injection, schedule: Q04DX003 (ip), vehicle: Klucel (hydroxypropylcellulose) (HPC)) was 91 % of control, the T/C (dose: 50.0 mg/kg/injection, schedule: Q04DX003 (ip), vehicle: Klucel (hydroxypropylcellulose) (HPC)) was 95 % of control and the T/C [5] was 91 % of control.

In the case of COc1ccc(NC(=S)N(CCC#N)C2CCCCC2)cc1, the T/C (dose: 6.25 mg/kg/injection, schedule: Q01DX009 (ip), vehicle: saline with Tween-80) is reported as 86 % of control, the T/C [6] is reported as 100 % of control and the T/C [7] is reported as 104 % of control. The T/C [8] was 95 % of control.

O=C(O)C(CS(=O)(=O)O)Nc1ncnc2nc[nH]c12 (centres undefined) was tested, and the T/C (dose: 100.0 mg/kg/injection, schedule: Q04DX003 (ip), vehicle: saline) was 100 % of control, the T/C (dose: 200.0 mg/kg/injection, schedule: Q04DX003 (ip), vehicle: saline) was 100 % of control and the T/C (dose: 400.0 mg/kg/injection, schedule: Q04DX003 (ip), vehicle: saline) was 100 % of control.

For NS(=O)(=O)O, the T/C [1] was 91 % of control and the T/C [2] was 87 % of control.

For O=N[O-].[Co].[N-]=C=S.[NH2-].[NH2-].[NH2-].[NH2-], the T/C (dose: 6.25 mg/kg/injection, schedule: Q01DX009 (ip), vehicle: saline) was 95 % of control, the T/C [1] was 93 % of control and the T/C [2] was 112 % of control. For the same molecule, the T/C (dose: 50.0 mg/kg/injection, schedule: Q04DX003 (ip), vehicle: saline with Tween-80) was 120 % of control.

c1ccc(OCC2CO2)c(OCC2CO2)c1 (centres undefined) was tested, and the T/C (dose: 60.0 mg/kg/injection, schedule: Q01DX005 (ip), vehicle: saline with Tween-80) was 157 % of control, the T/C (dose: 120.0 mg/kg/injection, schedule: Q01DX005 (ip), vehicle: saline with Tween-80) was 185 % of control and the T/C (dose: 240.0 mg/kg/injection, schedule: Q01DX005 (ip), vehicle: saline with Tween-80) was 171 % of control.

For CCn1cnc2c(C(F)(F)F)nc(N)nc21, the T/C (dose: 12.5 mg/kg/injection, schedule: Q01DX009 (ip), vehicle: Klucel (hydroxypropylcellulose) (HPC)) was 100 % of control, the T/C (dose: 25.0 mg/kg/injection, schedule: Q01DX009 (ip), vehicle: Klucel (hydroxypropylcellulose) (HPC)) was 110 % of control and the T/C (dose: 50.0 mg/kg/injection, schedule: Q01DX009 (ip), vehicle: Klucel (hydroxypropylcellulose) (HPC)) was 110 % of control.

In the case of CCC(C)C(=O)O[C@H]1C(=O)O[C@@H]2C[C@H]3C(C)=CC(=O)[C@@H](O)[C@]3(C)[C@H]3[C@@H](O)[C@H](O)[C@@]4(C)OC[C@]32[C@@H]14 (some centres undefined), the T/C (dose: 0.06 mg/kg/injection, schedule: Q01DX009 (ip), vehicle: saline + alcohol) is reported as 115 % of control, the T/C (dose: 0.75 mg/kg/injection, schedule: Q01DX009 (ip), vehicle: saline + alcohol) is reported as 159 % of control and the T/C (dose: 1.0 mg/kg/injection, schedule: Q01DX009 (ip), vehicle: saline + alcohol) is reported as 198 % of control. The T/C (dose: 1.5 mg/kg/injection, schedule: Q01DX009 (ip), vehicle: saline + alcohol) was 154 % of control, the T/C (dose: 2.0 mg/kg/injection, schedule: Q01DX009 (ip), vehicle: saline + alcohol) was 155 % of control and the T/C (dose: 3.0 mg/kg/injection, schedule: Q01DX009 (ip), vehicle: saline + alcohol) was 104 % of control. The T/C (dose: 4.0 mg/kg/injection, schedule: Q01DX009 (ip), vehicle: saline + alcohol) was 180 % of control.

With c1ccc2c(NCCCCCCCCNc3c4ccccc4nc4ccccc34)c3ccccc3nc2c1 the T/C (dose: 2.5 mg/kg/injection, schedule: Q01DX009 (ip), vehicle: Klucel (hydroxypropylcellulose) (HPC)) was 112 % of control and the T/C (dose: 20.0 mg/kg/injection, schedule: Q01DX009 (ip), vehicle: Klucel (hydroxypropylcellulose) (HPC)) was 100 % of control.

For COc1ccc(-c2cc(C(=O)O)c3cc4ccccc4cc3n2)cc1Br, the T/C [9] was 100 % of control, the T/C (dose: 200.0 mg/kg/injection, schedule: Q01DX009 (ip), vehicle: saline with Tween-80) was 100 % of control and the T/C (dose: 400.0 mg/kg/injection, schedule: Q01DX009 (ip), vehicle: saline with Tween-80) was 97 % of control. The T/C (dose: 600.0 mg/kg/injection, schedule: Q01DX009 (ip), vehicle: saline with Tween-80) was 109 % of control.

COc1cccc2c1C(=O)c1c(O)c3c(c(O)c1C2=O)C[C@@](O)(C(=O)CO)C[C@@H]3OC1CC(NC(=O)CN)C(O)C(C)O1 (some centres undefined) was tested, and the T/C (dose: 1.56 mg/kg/injection, schedule: Q01DX009 (ip), vehicle: other) was 108 % of control, the T/C (dose: 3.13 mg/kg/injection, schedule: Q01DX009 (ip), vehicle: other) was 110 % of control and the T/C (dose: 6.25 mg/kg/injection, schedule: Q01DX009 (ip), vehicle: other) was 105 % of control. The T/C (dose: 12.5 mg/kg/injection, schedule: Q01DX009 (ip), vehicle: other) was 99 % of control and the T/C (dose: 25.0 mg/kg/injection, schedule: Q01DX009 (ip), vehicle: other) was 114 % of control.

In the case of C=CCN1C(=O)C=CC1=O, the T/C (dose: 0.75 mg/kg/injection, schedule: Q01DX009 (ip), vehicle: saline) is reported as 102 % of control and the T/C (dose: 3.0 mg/kg/injection, schedule: Q01DX009 (ip), vehicle: saline) is reported as 117 % of control.

CCC/C=C/C=C/C1CC(O)C(O)C(=O)C1CO (centres undefined) was tested, and the T/C [6] was 99 % of control, the T/C [7] was 106 % of control and the T/C [8] was 97 % of control. The T/C [9] was 101 % of control.

In the case of COc1ccc(NC2=NCCS2)cc1, the T/C [8] is reported as 109 % of control and the T/C [9] is reported as 104 % of control.

With CCOC(=O)CCSC(C)(C)C(=O)OCC the T/C (dose: 100.0 mg/kg/injection, schedule: Q01DX009 (ip), vehicle: Klucel (hydroxypropylcellulose) (HPC)) was 100 % of control, the T/C [5] was 104 % of control and the T/C (dose: 200.0 mg/kg/injection, schedule: Q01DX009 (ip), vehicle: Klucel (hydroxypropylcellulose) (HPC)) was 105 % of control. The T/C (dose: 200.0 mg/kg/injection, schedule: Q04DX003 (ip), vehicle: Klucel (hydroxypropylcellulose) (HPC)) was 104 % of control, the T/C (dose: 400.0 mg/kg/injection, schedule: Q01DX009 (ip), vehicle: Klucel (hydroxypropylcellulose) (HPC)) was 105 % of control and the T/C (dose: 400.0 mg/kg/injection, schedule: Q04DX003 (ip), vehicle: Klucel (hydroxypropylcellulose) (HPC)) was 100 % of control.
